Laboratory results as given in patent US20020091158A1, “Composition for and method of treatment using triterpenoids” (priority 1999, published 2002).
Like-named read-outs stand apart in the source and are kept apart here.

Tests used:
[1] = cited from earlier work
BJAB cells = experiment: Effect on BJAB cells growth curve (KSHV negative control cells); assay type: cell-based, human; details: six days, 2 mM and 4 mM in alcohol 0.5% and 1%
Method: (§1) The Glycyrrhizic acid (as ammonium salt supplied by Sigma) is dissolved in 25% of ethanol at 100 mM and adjusted to pH 6.8 with 1 N sodium hydroxide. The maximum inhibition activity with no effect on cell cycle is achieved with 4 mM, the dose-dependent range is within 2mM to 5mM.
(§2) BJA-B is an Epstein-Barr virus (EBV)-negative lymphoblastoid cell line established from an African Burkift's lymphoma, KSHV negative cell line. See Menezes J, et al, Establishment and characterization of an Epstein-Barr virus (EBV)-negative lymphoblastoid B cell line (BJA-B) from an exceptional, EBV-genome-negative African Burkitt's lymphoma. Biomedicine 1975 Jul; 22 (4): 276-84. These cells are used as controls. Cells are cultured at concentration of 4×10^5/ml in RPMI with 20% of fetal calf serum in the presence or absence of different drug concentrations.
Cells are treated for six days with alcohol 0.5% and 1%, Glycyrrhizic acid 2 mM and 4 mM in alcohol 0.5% and 1% respectively. Glycyrrhizic acid has no effect on the cells proliferation.

BC-3 cells = experiment: Effect on BC-3 cells growth curve (latently KSHV-infected); assay type: cell-based, human
Method: as §1
BC-3 is a cell line established from a HIV negative patient with a primary effusion lymphoma. See Arvanitakis L, et al Establishment and characterization of a primary effusion (body cavity-based) lymphoma cell line (BC-3) harboring Kaposi's sarcoma-associated herpesvirus (KSHV/HHV-8) in the absence of Epstein-Barr virus. Blood 88:2648-2654, 1996. The cells are latently KSHV-infected, but lacks EBV, and can be induced to enter lytic replication and viral production by treatment with TPA or with butyrate. BC-3 has an intact KSHV genome and is suitable for the isolation and study of KSHV.
as §2
The cells are treated for six days with alcohol 0.5% and 1%, Glycyrrhizic acid 2 mM and 4 mM in alcohol 0.5% and 1% respectively. Cells growth is 50% inhibited by Glycyrrhizic acid 2 mM, while treatment with Glycyrrhizic acid 4 mM determines cell death.

BC-1 cells = experiment: Effect on BC-1 cells growth curve (KSHV/EBV-infected); assay type: cell-based, human; details: 6 days
Method: as §1
(§3) BC-1 and BC-2 are cell lines established from two different HIV positive patients with non-Hodgkins lymphoma, specifically body cavity-based lymphomas. The cells are KSHV/EBV-infected and can be induced to enter lytic replication and viral production by treatment with TPA or with butyrate. These cells have an intact KSHV and EBV genomes and are ideal for KSHV and EBV isolation and study.(Cesarman, E. et al., Blood 1995 Oct.;86(7):2708-14.
(§4) The cells are treated for six days with alcohol 1%, glycyrrhizic acid 2 mM […], glycyrrhizic acid 3 mM and 4 mM in alcohol 0.5%, 0.75% and 1% respectively. After 6 days treatment cells growth decreased 50% using glycyrrhizic acid 2 mM and glycyrrhizic acid 3 mM. Cells growth decreased 80% using glycyrrhizic acid 4 mM.

BC-2 cells = experiment: Effect on BC-2 cells growth curve (KSHV/EBV-infected); assay type: cell-based, human; details: 6 days
Method: as §1, §3, §4

[2] = system: KSHV cyclin, v-FLIP and LANA (orf 73) genes; experiment: Northern blot of viral latent genes transcription in BC-3 cells; assay type: cell-based, Kaposi's sarcoma-associated herpesvirus (KSHV); details: for effect on the viral latent genes transcription: BC-3 cells, six days
Method: (§5) Total RNA was extracted using RNAzol B (Tel-Test Inc., Friendswood, Tex.) according to the manufacturer's instructions, and Poly A+RNA was selected with Poly A+ Tract kit (Promega, Madison, Wis.). To eliminate any contaminating DNA, the RNA samples were treated with 2 U RNAse free DNAse (Promega).
(§6) For Northern blot analysis, […] of each mRNA sample was electrophoresed in 1.5% formaldehyde agarose gel and then transferred to a Gene Screen nylon membrane (Du Pont, Boston, Mass.) overnight with 20×SSC. Filters were UV-cross-linked to fix the RNA and hybridized at 42° C. with probes obtained by PCR amplification of KSHV cyclin, v-FLIP and LANA (orf 73) genes (20) and labeled by ^32P random priming (Amersham Life Science, Buckinghamshire, England). Human β-actin probe was used as a quantitative control to measure the total mRNA. Membranes were washed twice at room temperature and twice at 65° C. then exposed.
(§7) On the left side are indicated the probes used. On the right side are indicated the size of the transcripts. All probes correspond to viral latent genes, except the human b actin which is used as a quantitative control to measure the transcription of total cellular mRNA.
(§8) Lane 6 is the positive control.

Human β-actin = experiment: Northern blot of β-actin as control for total cellular mRNA transcription; assay type: cell-based
Method: as §5, §6, §7, §8

KSHV latent antigens = experiment: Immunofluorescence assay of BC-3 cells for latent KSHV antigens; assay type: cell-based, Kaposi's sarcoma-associated herpesvirus (KSHV); details: 4 mM, stained with KS patient serum (panel C)
Method: Secondary antibody FITC-conjugated F(ab′)2 fragment of rabbit antihuman IgG (DAKO, Carpinteria, Calif.) diluted 1:40 in MB was applied. Cell nuclei were counterstained for 5 min, in PBS containing 17 μM Dapi (4′-6′-diamino-2′-phenyidole dihydrochloride [Boehringer Mannheim Corp., Indianapolis, Ind.]), rinsed in TBST, mounted with Vectashield (Vector Lab. Inc., Burlingame, Calif.) and examined in a fluorescence microscope Axioplan2 (Zeiss, Germany). BC-3 cells were run in parallel as controls.
In panel C the BC-3 cells have been treated with glycyrrhizic acid 4 mM and stained with KS patient serum. In panel D BC-3 cells have been treated with glycyrrhizic acid 4 mM and stained with Dapi to localize the nuclei. Kaposi's Sarcoma patient serum is used primary antibody to stain the KSHV latent antigens.

For `CC1(C(=O)O)CCC2(C)CCC3(C)C(=CC(=O)C4C5(C)CCC(OC6OC(C(=O)O)C(O)C(O)C6OC6OC(C(=O)O)C(O)C(O)C6O)C(C)(C)C5CCC43C)C2C1.N.O.O.O.O.O` (stereo not drawn) [Ammonium glycyrrhizinate pentahydrate], the solubility ([1]; ammonia water, ethanol, glacial acetic acid) is given as “soluble”.

For `CC1(C)[C@@H](O[C@H]2O[C@H](C(=O)O)[C@@H](O)[C@H](O)[C@H]2O[C@@H]2O[C@H](C(=O)O)[C@@H](O)[C@H](O)[C@H]2O)CC[C@]2(C)[C@H]3C(=O)C=C4[C@@H]5C[C@@](C)(C(=O)O)CC[C@]5(C)CC[C@@]4(C)[C@]3(C)CC[C@@H]12` [Glycyrrhizic acid], the “effect on the cells proliferation” value (BJAB cells) was “no effect”, the “effect on cells growth” value (BC-3 cells; BC-3 cells, six days, 4 mM) was “cell death” and the inhibition at 2000 µM (BC-3 cells; Homo sapiens, 144 h, BC-3 cells, six days, 2 mM, read-out: cells growth inhibited) was 50%. The “KSHV infected cells killed” value (BC-3 cells; six days after treatment) was “completely killed”, the cells growth decreased (BC-1 cells; 2 mM) was 50% and the cells growth decreased (BC-1 cells; 3 mM) was 50%. For the same compound, the cells growth decreased (BC-1 cells; 4 mM) was 80%, the cells growth decreased (BC-2 cells; 2 mM) was 50% and the cells growth decreased (BC-2 cells; 3 mM) was 50%. For the same compound, the cells growth decreased (BC-2 cells; 4 mM) was 80%, the “concentration of maximum inhibition activity with no effect on cell cycle” value [2] was 4 mM and the “effect on the viral latent genes transcription” value ([2]; 2 mM (lane 7)) was “does not show any effect”. For the same compound, the “effect on the viral latent genes transcription” value ([2]; 4 mM (lane 8)) was “almost totally inhibited”, the “transcription of total cellular mRNA (b actin)” value (Human β-actin; BJA-B cells, six days, 2 mM and 4 mM (lanes 1-5)) was “not inhibited” and the “effect on cellular mRNA (β actin)” value (Human β-actin; all samples, BJA-B and BC-3) was “does not have any effect”. For the same compound, the “expression of latent viral antigens” value (KSHV latent antigens) was “inhibits the expression of latent viral antigens” and the solubility ([1]; hot water and alcohol) was “freely soluble”.
